The values that follow come from patent publication US12012392B2, “Sulfonamide carboxamide compounds” (Inflazome Limited, priority 2017, dated 2024).

By IC50 is commonly meant the point on the concentration scale where inhibition reaches its midpoint. What is called AUC is the area under the concentration-time curve, a measure of exposure. Low values mean less exposure, high ones more exposure. For orientation: half-life means the time needed for the level to fall by half in the phase considered. Higher therefore signals slow decline.

Each structure is given as a SMILES string. Counter-ions that a name gives are not always drawn.

For data set [1], the target named is T1, NLRP3 (Homo sapiens, UniProt Q96P20). The data set can be described thus: THP-1 cells pyroptosis assay. The data set is classed as cell-based. Also on record: Seed THP-1 cells (25,000 cells/well) containing 1.0 μg/ml LPS; host or cells: THP-1 cells, LPS-primed, nigericin-stimulated. As to conditions: LPS 1 μg/ml, nigericin 5 μM, resazurin read-out. The procedure:
THP-1 cells (ATCC #TIB-202) were grown in RPMI containing L-glutamine (Gibco #11835) supplemented with 1 mM sodium pyruvate (Sigma #S8636) and penicillin (100 units/ml)/streptomycin (0.1 mg/ml) (Sigma #P4333) in 10% Fetal Bovine Serum (FBS) (Sigma #F0804). The cells were routinely passaged and grown to confluency (˜10^6 cells/ml). On the day of the experiment, THP-1 cells were harvested and resuspended into RPMI medium (without FBS). The cells were then counted and viability (>90%) checked by Trypan blue (Sigma #T8154). Appropriate dilutions were made to give a concentration of 625,000 cells/ml. To this diluted cell solution was added LPS (Sigma #L4524) to give a 1 μg/ml Final Assay Concentration (FAC). 40 μl of the final preparation was aliquoted into each well of a 96-well plate. The plate thus prepared was used for compound screening.
The following method step-by-step assay was followed for compound screening. • 1. Seed THP-1 cells (25,000 cells/well) containing 1.0 μg/ml LPS in 40 μl of RPMI medium (without FBS) in 96-well, black walled, clear bottom cell culture plates coated with poly-D-lysine (VWR #734-0317) • 2. Add 5 μl compound (8 points half-log dilution, with 10 μM top dose) or vehicle (DMSO 0.1% FAC) to the appropriate wells • 3. Incubate for 3 hrs at 37° C. and 5% CO2 • 4. Add 5 μl nigericin (Sigma #N7143) (FAC 5 μM) to all wells • 5. Incubate for 1 hr at 37° C. and 5% CO2 • 6. At the end of the incubation period, spin plates at 300×g for 3 mins and remove supernatant • 7. Then add 50 μl of resazurin (Sigma #R7017) (FAC 100 μM resazurin in RPMI medium without FBS) and incubate plates for a further 1-2 hrs at 37° C. and 5% CO2 • 8. Plates were read in an Envision reader at Ex 560 nm and Em 590 nm • 9. IC50 data is fitted to a non-linear regression equation (log inhibitor vs response-variable slope 4-parameters) 96-Well Plate Map
(In general: Resazurin is reduced to fluorescent resorufin, in cell work by metabolically active cells.)

The target in data set [2] is T1, NLRP3. In words: Human whole blood IL1β release assay. The data set is classed as cell-based. Also on record: Plate out 80 μl of whole blood containing 1 μg/ml of LPS; from tissue; host or cells: human whole blood from healthy donors, LPS-primed, nigericin-stimulated. The settings on record: LPS 1 μg/ml, nigericin 10 μM, IL-1β AlphaLisa, read-out: HWB IC50. The procedure: For systemic delivery, the ability to inhibit NLRP3 when the compounds are present within the bloodstream is of great importance. For this reason, the NLRP3 inhibitory activity of a number of compounds in human whole blood was investigated in accordance with the following protocol.
Human whole blood in Li-heparin tubes was obtained from healthy donors from a volunteer donor panel. • 1. Plate out 80 μl of whole blood containing 1 μg/ml of LPS in 96-well, clear bottom cell culture plate (Corning #3585) • 2. Add […] compound (8 points half-log dilution with 10 μM top dose) or vehicle (DMSO 0.1% FAC) to the appropriate wells • 3. Incubate for 3 hrs at 37° C., 5% CO2 • 4. Add 10 μl Nigericin (Sigma #N7143) (10 μM FAC) to all wells • 5. Incubate for 1 hr at 37° C., 5 CO2 • 6. At the end of the incubation period, spin plates at 300×g for 5 mins to pellet cells and remove 20 μl of supernatant and add to 96-well v-bottom plates for […] analysis (note: these plates containing the supernatants can be stored at −80° C. to be analysed at a later date) • 7. IL-1β was measured according to the manufacturer protocol (Perkin Elmer-AlphaLisa IL-1 Kit AL220F-5000) • 8. IC50 data is fitted to anon-linear regression equation (log inhibitor vs response-variable slope 4-parameters)

Data set [3] is described as follows: PK protocol (intravenous and oral administration). The data set is classed as in vivo, male Sprague Dawley rats. As to conditions: male, Sprague Dawley, plasma, rat, intravenous, dose 2.41 mg/kg. The procedure: Pharmacokinetic parameters were determined in male Sprague Dawley rats (Charles River, UK, 250-350 g; or Vital River Laboratory Animal Technology Co Ltd, Beijing, China, 7-9 weeks old). Animals were individually housed during the study and maintained under a 12 h light/dark cycle. Animals had free access to food and water except that some orally dosed animals were food deprived overnight prior to the study. For intravenous administration, compounds were formulated as a solution in water or DMSO:PBS [10:90] in 2 mL/kg dosing volume and administered via tail vein. For oral administration, compounds were formulated as a solution in water or DMSO:water [10:90] in 5 mL/kg dosing volume and administered orally.
Serial blood samples (about 120-300 μL) were taken from each animal at each of 8 time-points post dose (0.083, 0.25, 0.5, 1, 2, 4, 8 and 24 h) or at each of 12 time-points post dose (0.03, 0.1, 0.17, 0.25, 0.5, 1, 2, 4, 6, 8, 12 and 24 h) or pre-dose and at each of 9 time-points post dose (0.25, 0.5, 1, 2, 4, 6, 8, 12 and 24 h). Samples were held on ice for no longer than 30 minutes before centrifugation (10,000 rpm (8,385 g) for 3 minutes; or 5,696 rpm (3,000 g) for 15 minutes) for plasma generation. Plasma was frozen on dry ice prior to bioanalysis. PK parameters were generated from LC-MS/MS data using Dotmatics or Phoenix WinNonlin 6.3 software.

T1 sequence (Q96P20 whole entry): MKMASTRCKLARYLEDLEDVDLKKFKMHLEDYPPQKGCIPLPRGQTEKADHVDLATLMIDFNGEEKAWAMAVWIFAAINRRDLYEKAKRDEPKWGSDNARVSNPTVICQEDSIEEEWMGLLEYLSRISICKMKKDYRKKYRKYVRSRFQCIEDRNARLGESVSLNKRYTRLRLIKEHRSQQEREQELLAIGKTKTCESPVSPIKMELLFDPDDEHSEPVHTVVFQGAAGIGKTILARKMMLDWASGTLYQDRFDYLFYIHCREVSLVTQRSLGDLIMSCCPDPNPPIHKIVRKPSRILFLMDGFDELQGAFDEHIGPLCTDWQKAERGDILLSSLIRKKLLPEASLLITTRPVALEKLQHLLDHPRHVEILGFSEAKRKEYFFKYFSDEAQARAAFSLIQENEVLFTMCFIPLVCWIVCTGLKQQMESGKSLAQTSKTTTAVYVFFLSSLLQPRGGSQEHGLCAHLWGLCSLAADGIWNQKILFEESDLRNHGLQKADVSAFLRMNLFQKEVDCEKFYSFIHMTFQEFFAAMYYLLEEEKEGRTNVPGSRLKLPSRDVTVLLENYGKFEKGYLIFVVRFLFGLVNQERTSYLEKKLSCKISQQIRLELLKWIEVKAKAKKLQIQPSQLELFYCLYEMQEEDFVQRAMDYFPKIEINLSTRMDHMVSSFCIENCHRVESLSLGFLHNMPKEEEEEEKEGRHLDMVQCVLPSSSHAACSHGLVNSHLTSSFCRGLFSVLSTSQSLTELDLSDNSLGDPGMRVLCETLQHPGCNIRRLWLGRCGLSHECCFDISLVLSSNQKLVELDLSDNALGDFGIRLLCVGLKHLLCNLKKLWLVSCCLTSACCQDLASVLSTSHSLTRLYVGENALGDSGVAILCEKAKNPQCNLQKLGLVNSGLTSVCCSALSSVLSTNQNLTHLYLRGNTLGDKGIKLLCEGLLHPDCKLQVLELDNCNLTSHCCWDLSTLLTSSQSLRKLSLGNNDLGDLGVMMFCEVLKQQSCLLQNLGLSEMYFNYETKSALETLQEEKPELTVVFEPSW

With `O=C(Nc1c2c(cc3c1CCC3)CCC2)NS(=O)(=O)c1ccn(C2CCCC2O)n1` (racemic) [Example 22, N-((1,2,3,5,6,7-Hexahydro-s-indacen-4-yl)carbamoyl)-1-(2-hydroxycyclopentyl)-1H-pyrazole-1-sulfonamide], the IC50 at NLRP3 [1] was in the range of 40 to 160 nM; at NLRP3 [2], 400 to 800 nM.
For `O=C(Nc1c2c(cc3c1CCC3)CCC2)NS(=O)(=O)c1ccn(CC2CCCO2)n1` (single isomer, unassigned) [Example 4] the same measures were 40 to 160 nM and 3200 to 10000 nM.
The like results for `O=C(Nc1c2c(cc3c1CCC3)CCC2)NS(=O)(=O)c1ccn(CC2CCCO2)n1` (single isomer, unassigned) [Example 5] were, in that order, 40 to 160 nM and 800 to 1600 nM.
For `O=C(Nc1c2c(cc3c1CCC3)CCC2)NS(=O)(=O)c1ccn(CC2CCOC2)n1` (centres unmarked) [Example 6, N-((1,2,3,5,6,7-Hexahydro-s-indacen-4-yl)carbamoyl)-1-((tetrahydrofuran-3-yl)methyl)-1H-pyrazole-3-sulfonamide] the same measures were 40 to 160 nM and 800 to 1600 nM.
In the case of `O=C(Nc1c2c(cc3c1CCC3)CCC2)NS(=O)(=O)c1ccn(CCCO)n1` [Example 7, N-((1,2,3,5,6,7-Hexahydro-s-indacen-4-yl)carbamoyl)-1-(3-hydroxypropyl)-1H-pyrazole-3-sulfonamide], the IC50 was in the range of 40 to 160 nM on NLRP3 [1] and 400 to 800 nM on NLRP3 [2].
On to `O=C(Nc1c2c(cc3c1CCC3)CCC2)NS(=O)(=O)c1ccn(CCO)n1` [Example 8, N-((1,2,3,5,6,7-Hexahydro-s-indacen-4-yl)carbamoyl)-1-(2-hydroxyethyl)-1H-pyrazole-3-sulfonamide], for which the IC50 is 40 to 160 nM at NLRP3 [1] and under 400 nM on NLRP3 [2].
For `CC1(Cn2ccc(S(=O)(=O)NC(=O)Nc3c4c(cc5c3CCC5)CCC4)n2)COC1` [Example 9, N-((1,2,3,5,6,7-Hexahydro-s-indacen-4-yl)carbamoyl)-1-((3-methyloxetan-3-yl)methyl)-1H-pyrazole-3-sulfonamide, partial ammonium salt], the IC50 lay in the range of 640 to 2560 nM on NLRP3 [1] and 3200 to 10000 nM on NLRP3 [2].
In data set [3], `CN(CCO)C(=O)c1cc(S(=O)(=O)NC(=O)Nc2c3c(cc4c2CCC4)CCC3)nn1C` [Example 59, 3-(N-((1,2,3,5,6,7-Hexahydro-s-indacen-4-yl)carbamoyl)sulfamoyl)-N-(2-hydroxyethyl)-N,1-dimethyl-1H-pyrazole-5-carboxamide] had an AUC of 787 ng·h/mL, a clearance of 114 mL/min/kg and a half-life of 18 min. In data set [3] (read-out: Vdss), the Vd worked out at 2.37 L/kg. In addition, the 50% inhibitory concentration (IC50) on NLRP3 [1] was 40 to 160 nM.
Consider `COCCN(CCOC)C(=O)c1cc(S(=O)(=O)NC(=O)Nc2c(C(C)C)cccc2C(C)C)nn1C` [Example 69, 3-(N-((2,6-Diisopropylphenyl)carbamoyl)sulfamoyl)-N,N-bis(2-methoxyethyl)-1-methyl-1H-pyrazole-5-carboxamide], for which the IC50 on NLRP3 [1] is 2560 to 10000 nM.
As for `Cn1nc(S(=O)(=O)NC(=O)Nc2c3c(cc4c2CCC4)CCC3)cc1C(=O)N1CCC(O)CC1` [Example 70, N-((1,2,3,5,6,7-Hexahydro-s-indacen-4-yl)carbamoyl)-5-(4-hydroxypiperidine-1-carbonyl)-1-methyl-1H-pyrazole-3-sulfonamide], the IC50 at NLRP3 [1] is 2560 to 10000 nM.
Consider `COC1CCN(C(=O)c2cc(S(=O)(=O)NC(=O)Nc3c4c(cc5c3CCC5)CCC4)nn2C)C1` (centres unmarked) [Example 71, N-((1,2,3,5,6,7-Hexahydro-s-indacen-4-yl)carbamoyl)-5-(3-methoxypyrrolidine-1-carbonyl)-1-methyl-1H-pyrazole-3-sulfonamide], for which, at NLRP3 [1], the IC50 was in the range of 2560 to 10000 nM.
On the same count and under the same terms, the figure for `Cn1nc(S(=O)(=O)NC(=O)Nc2c3c(cc4c2CCC4)CCC3)cc1C(=O)N1CCOCC1` [Example 74, N-((1,2,3,5,6,7-Hexahydro-s-indacen-4-yl)carbamoyl)-1-methyl-5-(morpholine-4-carbonyl)-1H-pyrazole-3-sulfonamide] is 640 to 2560 nM; for `CC(C)c1cccc(C(C)C)c1NC(=O)NS(=O)(=O)c1cc(C(=O)N(C)CCO)n(C)n1` [Example 83, 3-(N-((2,6-Diisopropylphenyl)carbamoyl)sulfamoyl)-N-(2-hydroxyethyl)-N,1-dimethyl-1H-pyrazole-5-carboxamide] it is 640 to 2560 nM.
Regarding `Cn1nc(S(=O)(=O)NC(=O)Nc2c3c(cc4c2CCC4)CCC3)cc1C(=O)NCCO` [Example 84, 3-(N-((1,2,3,5,6,7-Hexahydro-s-indacen-4-yl)carbamoyl)sulfamoyl)-N-(2-hydroxyethyl)-1-methyl-1H-pyrazole-5-carboxamide], the IC50 at NLRP3 [1] fell in the range of 2560 to 10000 nM.
Still for that read-out and setting: the figure for `COCCNC(=O)c1cc(S(=O)(=O)NC(=O)Nc2c3c(cc4c2CCC4)CCC3)nn1C` [Example 85, 3-(N-((1,2,3,5,6,7-Hexahydro-s-indacen-4-yl)carbamoyl)sulfamoyl)-N-(2-methoxyethyl)-1-methyl-1H-pyrazole-5-carboxamide] is 2560 to 10000 nM; for `CC(C)(O)Cn1cc(S(=O)(=O)NC(=O)Nc2c3c(cc4c2CCC4)CCC3)cn1` [Example 88, N-((1,2,3,5,6,7-Hexahydro-s-indacen-4-yl)carbamoyl)-1-(2-hydroxy-2-methylpropyl)-1H-pyrazole-4-sulfonamide] it is 640 to 2560 nM; for `C[C@@H](O)Cn1cc(S(=O)(=O)NC(=O)Nc2c3c(cc4c2CCC4)CCC3)cn1` [Example 89, (R)—N-((1,2,3,5,6,7-Hexahydro-s-indacen-4-yl)carbamoyl)-1-(2-hydroxypropyl)-1H-pyrazole-4-sulfonamide] it is 640 to 2560 nM.
The same measure, in the same setting: the figure for `O=C(Nc1c2c(cc3c1CCC3)CCC2)NS(=O)(=O)c1cnn(C2CCOCC2)c1` [Example 99] is 2560 to 10000 nM; for `O=C(Nc1c2c(cc3c1CCC3)CCC2)NS(=O)(=O)c1cnn(C2CCOC2)c1` (centres unmarked) [Example 100] it is 640 to 2560 nM; for `COCCn1cc(S(=O)(=O)NC(=O)Nc2c3c(cc4c2CCC4)CCC3)cn1` [Example 101] it is 640 to 2560 nM.
Same read-out and setting: the figure for `O=C(Nc1c2c(cc3c1CCC3)CCC2)NS(=O)(=O)c1ccn(C2COCC2O)n1` (centres unmarked) [Example 105] is 160 to 640 nM.
